Columns and labels:
[1] = test system: OSC-4 cells; assay: BrdU incorporation assay, OSC-4 cells; format: cell-based, human; conditions: for DNA synthesis (BrdU assay): 24 hours
Method: (§1) DNA synthesis assay. DNA synthesis was analyzed by a BrdU Cell Proliferation Assay Kit (Oncogene Research Products, Boston, Mass.). […] After the treatment, cells were labeled with BrdU for 2 hours at 37° C. and reacted with anti-BrdU antibody. Unbound antibody in each well was removed by rinsing, and horseradish peroxidase-conjugated goat anti-mouse antibody was added to each well. The color reaction was visualized according to the protocol provided by the manufacturer.
as §1, with “cell proliferation assay kit” for “Cell Proliferation Assay Kit”, “anti-mouse IgG” for “anti-mouse”, “reaction to visualize the secondary antibody” for “reaction”, “carried out” for “visualized”

[2] = test system: p57 (KIP2); assay: Western blot of p57 in SCC25 oral carcinoma cells; format: cell-based, human; conditions: 50 μM EGCG or 0.2 mg/ml GTPPs, 24 h
Method: Cell treatments. For 24 hours treatments, exponentially growing cells with 40% confluency (to minimize differentiation and spontaneous apoptosis) were either maintained in 50 μM EGCG (2.29 mg/100 ml) or 0.2 mg/ml of GTPPs in tissue culture flasks (25 cm^2). Control flasks contained cells without any treatment. To test whether BaP or NNK interfere with the induction of p57, the human keratinocytes were treated with 0.12 μM BaP, or 10 μM NNK, either alone or in combination with 50 μM EGCG. To examine the time course of p57 induction, cells were treated with 50 μM EGCG and harvested for Western analysis at 30 minutes, 2 hours, 6 hours, and 24 hours. The human keratinocytes were treated when the cell density reached 85-90% confluency (to mimic the epithelium).
Western blot analysis. Cells from different treatment groups were lysed in RIPA buffer (1% NP-40, 1% sodium deoxycholate, 0.1% SDS, 0.15 M NaCl, 0.01 M sodium phosphate, pH 7.2, and 1% Trasylol) containing proteinase inhibitors (1 mM PMSF, 1 μg/ml each of aprotinin, leupeptin, and pepstatin). The concentration of protein in each sample was determined using the BioRad DC Protein Assay and spectrophotometry. Fifty micrograms (μg) of protein from each sample and a BioRad molecular weight standard marker were run on a 10% SDS-PAGE, followed by transfer to nitrocellulose membranes. […]

[3] = test system: catalase; assay: Catalase activity assay in cell lysates; format: cell-based, human
Method: Assays for SOD and catalase activities. Cells (1×10^6 cells/well) were incubated with or without EGCG (50 μM) in FilterCap 50 ml flasks (Nagel Nunc International, Rochester, N.Y.) for 30 minutes at 37° C. After the incubation, cells were harvested and disrupted in 100 μl of 10 mM Tris-HCl (pH 7.4) containing 0.1%(v/v) Triton X-100, 10 μg/ml leupeptin, 10 μg/ml pepstatin A and 100 mM phenylmethylsulfonyl fluoride by three cycles of freezing/thawing. After centrifugation at 17,000×g for 20 minutes at 4° C., the supernatants were used for SOD and catalase assays using the SOD Assay Kit-WST (Dojindo Molecular Technologies, Inc., Gaithersburg, Md.) and the AMPLEX Red Catalase Assay Kit (Molecular Probes), respectively. The activities of SOD and catalase were calibrated using a standard curve prepared with purified human SOD and catalase. The activities of SOD and catalase were expressed as units (U)/10^6 cells.
Assays for SOD and catalase activities. Cells (10^5 cells/well) were incubated with or without EGCG (50 μM) in 24-well culture plates for desirable time periods at 37° C. After the incubation, cells were harvested and disrupted in 100 μl of 10 mM Tris-HCl (pH 7.4) containing 0.1% (v/v) Triton ×-100, 10 μg/ml leupeptin, 10 μg/ml pepstatin A and 100 mM PMSF by three cycles of freezing/thawing. After centrifugation at 17,000×g for 20 minutes at 4° C., the supernatants were used for SOD and catalase assays using the SOD Assay Kit-WST (Molecular Technologies, Inc., Gaithersburg, Md.) and the Amplex Red Catalase Assay Kit (Molecular Probes), respectively. The activities of SOD and catalase were calibrated using a standard curve prepared with purified human SOD and catalase. The activities of SOD and catalase were expressed as units (U)/10^6 cells.

[4] = test system: p21/WAF1; assay: Apoptosis macroarray, p21/WAF1 mRNA in NHEK; format: cell-based, human; conditions: 100 μM EGCG
Method: To identify additional factors those suppress EGCG -induced apoptosis and facilitate cell differentiation in NHEK, exponentially growing NHEK (Cambrex, Baltimore, Md.) were exposed to 100 μM EGCG for 0, 2, 6 and 24 hours, prior to total RNA isolation using the Qiagen RNeasy mini kit (Valencia, Calif.), which was followed by RT-PCR labeling and hybridization with the Human Apoptosis Macroarray membrane (Sigma-Genosys, The Woodlands, Tex.). Total cell lysates also were collected following a variety of EGCG treatments. The protein levels for caspase 14 and p21 were determined by immuno-blotting using antibodies specific for caspase 14 and p21 (Santa Cruz Biotechnology, Santa Cruz, Calif.).
Normal human epidermal keratinocytes (NHEK; Cambrex), and oral squamous cell carcinoma (OSC2) cells, originally from gingival tissue, were compared. Exponentially growing cells were exposed to 50 or 100 μM EGCG for 0 hours, 2 hours, 6 hours or 24 hours. Cells were harvested for total RNA, which was examined by apoptosis macroarrays (Sigma Genosys), followed by phosphorimagery and data analysis (GeneSpring). Protein production of expressed genes was confirmed by Western blotting of whole cell lysates.

[5] = test system: MCF7 cells; assay: Cell growth assay, MCF7 cells; format: cell-based, human; conditions: 50 μM EGCG, 96 hours
Method: Cell growth assay. MCF7 cells were seeded (5×10^4) in 25 cm^2 tissue culture flask for 24 hours prior to EGCG or GTPPs incubation. Cells from each flask were trypsinized and counted at each time point on a hemacytometer.

[6] = test system: caspase 3; assay: Caspase 3 activity assay, MCF7(C) caspase 3+ cells; format: cell-based, human; conditions: increasing EGCG or 0.2 mg/ml GTPPs, 24 h
Method: Caspase 3 activity assay. The Caspase 3 Apoptosis Detection Kit was purchased from Santa Cruz Biotech. Inc. In a 24 well tissue culture plate, 10^5 cells/well of cells in triplicates were plated. […] To each well, 100 μl of 2×reaction buffer was added with […]. Finally, 5 μl of DEVD-AFC substrate was added to each well containing cell lysates. The reaction mixtures were incubated for 1 hour at 37° C. The caspase 3 activity in each well was measured using a fluorescence microplate reader set for 405 nm excitation and 505 nm emission.

[7] = as stated in Example 9; read-out: Cmax in the plasma; cited from earlier work
[8] = test system: NHEK; assay: Light microscopy of NHEK grown alone; format: cell-based, human; conditions: 100 μM EGCG, 24 hour

## O=C(O[C@@H]1Cc2c(O)cc(O)cc2O[C@@H]1c1cc(O)c(O)c(O)c1)c1cc(O)c(O)c(O)c1 [EGCG, (−)-epigallocatechin-3-gallate]
[1]; 50 μM EGCG
  DNA synthesis (BrdU assay): did not show significant changes
[1]; 200 μM EGCG
  BrdU incorporation, of control levels: approximately 75%
  DNA synthesis (BrdU assay): significantly reduced SDH activity and DNA synthesis
[1]; 200 μM EGCG, 24-hour period
  reduction of BrdU incorporation: approximately 25%
[2]
  p57 levels: remained unchanged
[3]; 50 μM EGCG, 30 minutes, NHEK, OSC-2, OSC-4
  catalase activity: Significant changes in catalase activity was not observed
[3]; EGCG, 24-hour treatment period
  catalase activity in OSC-4 cells: slight decrease
[3]; EGCG, 24-hour treatment period, NHEK, OSC-2, OSC-4
  catalase and total SOD enzymatic activity levels: had no effect on the enzymatic activity levels
[4]; 2 hours
  p21 mRNA level, of untreated control: 70.3%
[4]; 6 hours
  p21 mRNA level, of untreated control: 50.4%
[4]; 24 hours
  p21 mRNA level, of control: 32.7%
[5]
  cell number compared to untreated cultures: only an insignificant decrease in cell number
[6]
  caspase 3 activation: demonstrated activated caspase 3
[7]
  Cmax: 10 µM
[8]
  cell death: showed no cell death

From patent publication US20040191842A1, “Chemopreventive and therapeutic aspects of polyphenolic compositions and assays” (Medical College of Georgia Research Institute, Inc., priority 2002, published 2004)
